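The compound was tested at five concentrations on cells cultured in 96-well plates, with a 48-hour exposure period. GI50 is the concentration that inhibits growth by half. TGI is the concentration that stops growth completely.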
What was measured:
Assay in all cases: DTP human tumour cell line panel, 48 h
[1] = system: SR leukemia
[2] = system: HOP-18 NSCLC
[3] = system: DMS 273 small cell lung
[4] = system: A549 NSCLC
[5] = system: LXFL 529 NSCLC
[6] = system: DLD-1 colon
[7] = system: KM20L2 colon
[8] = system: DMS 114 small cell lung
[9] = system: SNB-78 CNS
[10] = system: BT-549 breast

Row | SMILES | GI50 [1] | TGI [1] | GI50 [2] | TGI [2] | GI50 [3] | TGI [3] | GI50 [4] | TGI [4] | GI50 [5] | TGI [5] | GI50 [6] | TGI [6] | GI50 [7] | TGI [7] | TGI [8] | TGI [9] | TGI [10] | GI50 [10]
1 | CC(=O)[O-].[Mn+3].[O-]c1ccccc1C=NCCN=Cc1ccccc1[O-] | 70.9 µM | > 100 µM | > 100 µM | > 100 µM | > 100 µM | > 100 µM | > 100 µM | > 100 µM | 50.7 µM | > 100 µM | 56.5 µM | > 100 µM | 56.2 µM | > 100 µM |  |  |  | 
2 | COC(=O)CCC(=O)Nc1cc(Cl)ccc1Cl |  | > 100 µM |  | > 100 µM |  |  |  | > 100 µM |  | > 100 µM |  | > 100 µM |  | > 100 µM | > 100 µM | > 100 µM |  | 
3 | O=S(=O)(SCc1ccccc1)C(c1ccccc1)c1ccccc1 |  | 74.6 µM |  |  |  | > 100 µM |  | > 100 µM |  | > 100 µM |  | 55.4 µM |  | 40.5 µM | 48.1 µM | 75.7 µM |  | 
4 | CC1=C(C(=O)Nc2cc(=O)n(C)c(=O)n2C)C(c2ccc([N+](=O)[O-])cc2)C(C(=O)Nc2cc(=O)n(C)c(=O)n2C)=C(C)N1 |  |  |  | > 100 µM |  |  |  | > 100 µM |  | > 100 µM |  | > 100 µM |  | > 100 µM | > 100 µM | > 100 µM |  | 
5 | Cc1[nH]c2ccccc2c1-c1cc(-c2cc(-c3c(C)[nH]c4ccccc34)nc(N)n2)nc(N)n1 |  | > 100 µM |  |  |  |  |  | > 100 µM |  |  |  |  |  |  |  |  | > 100 µM | 
6 | Cc1ccccc1C(=O)Oc1ccc(O)cc1 |  |  |  | > 100 µM |  | > 100 µM |  | > 100 µM |  |  |  | > 100 µM |  | > 100 µM |  | > 100 µM |  | 
7 | COc1ccc(N/N=C(\CCN(C)C)c2ccccc2)cc1 |  | 15.6 µM |  | > 100 µM |  | 11.1 µM |  |  |  | 3.8 µM |  | 11.9 µM |  | 1.71 µM | 27.6 µM | 26.9 µM |  | 
8 | CN(C)CCNC(=O)c1cccc2c(Nc3ccc(S(N)(=O)=O)cc3)c3ccccc3nc12 |  | > 100 µM |  | 9.2 µM |  | 3.71 µM |  | 7.29 µM |  | 2.23 µM |  |  |  | 13.3 µM | 2.3 µM |  |  | 
9 | CS(=O)(=O)CCNCc1ccc(-c2ccc3ncnc(Nc4ccc(OCc5cccc(F)c5)c(C(F)(F)F)c4)c3c2)o1 | 6.34 µM | 19.4 µM |  |  |  |  | 4.23 µM | 9.27 µM |  |  |  |  |  |  |  |  | 11.9 µM | 4.9 µM
10 | CC(=O)O[C@H]1CCC2[C@@H]3CCC4=C(O)C(=O)C(C#N)C[C@]4(C)C3CC[C@@]21C (stereo not given in full) |  |  |  |  |  | > 100 µM |  | > 100 µM |  | > 100 µM |  | > 100 µM |  | > 100 µM | 81.1 µM | > 100 µM |  | 
11 | O=Cc1ccc(-c2ccc(-c3nc4ccccc4o3)cc2)s1 | 15.3 µM | 47.7 µM |  |  |  |  | 70.5 µM | > 100 µM |  |  |  |  |  |  |  |  | 52.6 µM | 18 µM
12 | CN(C)C/C=C/C(=O)Nc1cc2c(Nc3ccc(F)c(Cl)c3F)ncnc2cc1OCCOC(F)F | 0.496 µM | 4.83 µM |  |  |  |  | 0.596 µM | 10.2 µM |  |  |  |  |  |  |  |  | 6.86 µM | 1.57 µM
13 | Cc1nc([C@H]2CC[C@H]3[C@@H]4CCC5=CC(=O)CC[C@]5(C)[C@H]4CC[C@]23C)cs1 | 0.584 µM |  |  |  |  |  | 5.25 µM | > 100 µM |  |  |  |  |  |  |  |  | 8.97 µM | 1.97 µM
14 | Fc1ccc(-c2ncn(C3CCNCC3)c2-c2ccnc(Oc3ccc(F)c(F)c3)n2)cc1 | 6.23 µM | 13.4 µM |  |  |  |  | 9.39 µM | > 19.4 µM |  |  |  |  |  |  |  |  | > 25 µM | 12.1 µM
15 | C=C1c2[nH]c3ccccc3c2C2C(CC)C1CCN2C (stereo not given) |  | 74.8 µM |  |  |  |  |  | > 100 µM |  |  |  |  |  |  |  |  | > 100 µM | 
16 | Cc1nc(CN2CCCCC2)c(O)c(=O)[nH]1 |  | > 100 µM |  |  |  |  |  | > 100 µM |  |  |  |  |  |  |  |  | > 100 µM | 
17 | CC#C/C(=N\OC[C@H]1COCCN1)c1ccc2ncnc(Nc3ccc(OCc4cccc(F)c4)c(Cl)c3)c2c1 | 1.68 µM | 5.34 µM |  |  |  |  | 1.64 µM | 9.85 µM |  |  |  |  |  |  |  |  | 20.5 µM | 6.06 µM
18 | COc1ccc(/C=C2\CC(C)CC3C2=NN(C(C)=O)C3c2ccc(OC)cc2)cc1 (stereo not given) | 20.4 µM | 50.5 µM |  |  |  |  | 25.1 µM | > 100 µM |  |  |  |  |  |  |  |  | 55.9 µM | 23 µM
19 | COc1cc(O)c2c(c1)C(=O)C=C(Cl)C2=O |  |  |  | > 100 µM |  | > 100 µM |  | > 100 µM |  | > 100 µM |  | > 100 µM |  | > 100 µM | > 100 µM | > 100 µM |  | 
20 | Cc1nccc2c3ccc(OCc4cn(-c5ccc(Cl)cc5)nn4)cc3n(CCCc3ccccc3)c12 | 0.789 µM | 2.25 µM |  |  |  |  | 2.3 µM | > 33.3 µM |  |  |  |  |  |  |  |  | 19.6 µM | 7.35 µM
21 | O=C(Cc1nc2ccccc2s1)C(=O)Nc1cccc(Cl)c1 |  |  |  |  |  | > 100 µM |  | > 100 µM |  | > 100 µM |  | > 100 µM |  | > 100 µM | > 100 µM | > 100 µM |  | 
22 | Cc1cc(O)c(C2=NN(c3ccc(S(N)(=O)=O)cc3)C(c3ccc(N(C)C)cc3)C2)c(C)c1Cl (stereo not given) | 14.1 µM | 41 µM |  |  |  |  | 14.7 µM | 43.5 µM |  |  |  |  |  |  |  |  | 43.3 µM | 15.4 µM
23 | CCN(CC)CCCC(C)Nc1nc(C)cc(Nc2ccc3nc(C)cc(N)c3c2)n1 (stereo not given) | 0.024 µM | 22.8 µM |  |  |  |  | > 100 µM | > 100 µM |  |  |  |  |  |  |  |  | 56.7 µM | 19.2 µM
24 | CC(=O)OC1CC2Oc3ccc(C)cc3C(C)(O2)C1=O (stereo not given) |  |  |  | > 100 µM |  | > 100 µM |  | > 100 µM |  |  |  | > 100 µM |  |  | > 100 µM |  |  | 
25 | C#CCN(N=O)C(=O)NC(CCCNC(=O)OCc1ccccc1)C(=O)OCc1ccccc1 (stereo not given) |  | 84.2 µM |  |  |  | > 100 µM |  | > 100 µM |  | > 100 µM |  | > 100 µM |  | > 100 µM | > 100 µM | > 100 µM |  | 
26 | COc1ccc(C[C@@H]2NC[C@@H](O)[C@@H]2OC(C)=O)cc1 | 6.9 µM | > 100 µM |  | 6.35 µM |  | > 100 µM | 5.54 µM |  |  | 24.1 µM |  | 13.8 µM |  | > 100 µM | > 100 µM |  | 0.145 µM | 
27 | COc1ccc(NC(=O)CC/C(CC(=O)C(C)(C)C)=N\NC(=O)C(N)=O)cc1 |  | > 100 µM |  |  |  |  |  | > 100 µM |  | > 100 µM |  | > 100 µM |  | > 100 µM | > 100 µM |  |  | 
28 | C[C@@H]1Cc2c([nH]c3ccccc23)[C@@H](c2c(F)cc(NC3CN(CCCF)C3)cc2F)N1CC(F)(F)CO | 3.83 µM | > 100 µM |  |  |  |  | 9.91 µM | 28.7 µM |  |  |  |  |  |  |  |  | 4.04 µM | 2.05 µM
29 | O=c1cc(-c2ccccc2)oc2cc(O)cc(O)c12 |  | 65.6 µM |  |  |  | 34 µM |  | > 100 µM |  | 48.3 µM |  |  |  | 53.1 µM | 58.2 µM | 92.5 µM |  | 

— PubChem BioAssay (NCI)
